Measurements reported in US20250034182A1, “PHOSPHOLIPID COMPOUNDS AND METHODS OF MAKING AND USING THE SAME” (priority 2021, published 2025).

Legend:
Format in all cases: cell-based
[1] = RSV NHBE CC50 384 V2 (per Ex. U); settings: human
[2] = test system: Recombinant Respiratory Syncytial virus strain A2 containing the firefly luciferase reporter (RSV-Fluc) in NHBE cells; assay: RSV NHBE FLuc EC50 (Example I); settings: human respiratory syncytial virus, 72 h, read-out: RSV NHBE FLuc EC50 (nM) (per Ex. I)
Source text: Normal human bronchial epithelial (NHBE) cells are purchased from Lonza (Walkersville, MD Cat #CC-2540) and maintained in Bronchial Epithelial Cell Growth Medium (BEGM) (Lonza, Walkersville, MD, Cat #CC-3170) with all provided supplements in the BulletKit. Cells are passaged 2-3 times per week to maintain sub-confluent densities and are used for experiments at passages 2-4.
Recombinant Respiratory Syncytial virus strain A2 containing the firefly luciferase reporter between the P and M genes (RSV-Fluc, 6.3×10^6 TCID50/mL) is purchased from Viratree (Durham, NC, Cat #R^145).
NHBE cells (5×10^3/well) are seeded in 100 μL white wall/clear bottom 96-well plates (Corning) with culture medium and are incubated for 24 hours at 37° C. with 5% CO2. On the following day, three-fold serial dilutions of compounds prepared in DMSO are added to the wells using the HP D300e digital dispenser with normalization to the highest concentration of DMSO in all wells. The cells are then infected with RSV-Fluc diluted with BEGM media at an MOI of 0.1 for a final volume of 200 μL media/well. Uninfected and untreated wells are included as controls to determine compound efficacy against RSV-Fluc. Following incubation with compound and virus for three days at 37° C. with 5% CO2, 100 μL of culture supernatant is removed from each well and replaced with 100 μL of ONE-Glo luciferase reagent (Promega, Madison, WI, Cat #E6110). The plates are gently mixed by rocking for 10 minutes at 21° C. and luminescence signal is measured using an Envision plate reader (PerkinElmer). Values are normalized to the uninfected and infected DMSO controls (0% and 100% infection, respectively). Non-linear regression analysis is applied to determine the compound concentration at which 50% luminescence signal is reduced (EC50) using the XLfit4 add-in for MICROSOFT®EXCEL®. All experiments are performed in duplicate with two technical repeats each.

[3] = test system: Respiratory syncytial virus recombinant with luciferase (RSV-Luc5) in NHBE cells; assay: NHBE RSV-Luc5 384-well assay (EC50 RSVFLUC NHBE-384, Example U); settings: human respiratory syncytial virus, 72 h, read-out: RSV FLuc NHBE 384 EC50 (v2) (nM) (per Ex. U)
Description: Normal Human Bronchial Epithelial (NHBE) cells were purchased from Lonza (Walkersville, MD Cat #CC2540) and maintained in BEGM Bronchial Epithelial Cell (Growth Medium BulletKit (Lonza CC-3170).
Cells were thawed, expanded, and were used for experiments at passage 2. Respiratory syncytial virus recombinant with luciferase (RSV-Luc5) (≥1×10^7 Infectious Units/ml (IU/ml) determined by TCID50) was purchased from Microbiologics (Saint Cloud, MN). Viral replication was determined in NHBE cells in the following manner.
(§1) Compounds are prepared in 100% DMSO in 384-well polypropylene plates (Greiner, Monroe, NC, Cat #784201) with 8 compounds per plate in grouped replicates of 4 at 10 serially diluted concentrations (1:3). The serially diluted compounds were transferred to low dead volume Echo plates (Labcyte, Sunnyvale, CA, Cat #LP-0200).
The test compounds were spotted to 384-well assay plates (Greiner, Monroe, NC, Cat #781091) at 200 nL per well. NHBE cells were harvested and suspended in BEGM Bronchial Epithelial Cell Growth Medium BulletKit and seeded to the pre-spotted assay plates at 5,000 cells per well in 30 μL. RSV-Luc5 virus was diluted in BEGM Bronchial Epithelial Cell Growth Medium BulletKit at 500,000 Infectious Units (IU) per mL and 10 μL per well was added to the assay plates containing cells and compounds, for an MOI of 1. The assay plates were incubated for 3 days at 37° C. and 5% CO2. At the end of incubation, One-Glo reagent (Promega, Madison, WI, Cat #E6120) was prepared. The assay plates and One-Glo reagent were equilibrated to room temperature for at least 15 minutes. 40 μL per well of One-Glo reagent was added and the plates were incubated at room temperature for 15 minutes before reading the luminescence signal on an EnVision multimode plate reader (Perkin Elmer, Waltham, MA). Remdesivir was used as positive control and DMSO was used as negative control. Values were normalized to the positive and negative controls (as 0% and 100% replication, respectively) and data was fitted using non-linear regression analysis by Gilead's dose response tool. The EC50 value for each compound was defined as the concentration reducing the viral replication by 50%.

[4] = test system: Human Rhinovirus 1B (HRV1B) in H1-HeLa cells; assay: H1-HeLa HRV-CTG EC50, HRV1B (Example Z); settings: Rhinovirus A, 96 h, MOI 0.5, 4 days, Celltiter-Glo, read-out: HRV 1B HELA EC50 (nM) (per Ex. Z)
Source text: (§2) H1-Hela cell line (ATCC, Manassas, VA, Cat #CRL-1958) was maintained in Dulbecco's […] (DMEM) (Corning, New York, NY, Cat #15-018CM) supplemented with 10% fetal bovine serum (FBS) (Hyclone, Logan, UT, Cat #SH30071-03), and 1× Penicillin-Streptomycin-L-Glutamine (Coming, New York, NY, Cat #30-009-C1). Cells were passaged 2 times per week to maintain sub-confluent densities and were used for experiments at passage 5-30. The Human Rhinovirus 1B (HRV1B) (ATCC, Manassas, VA, Cat #VR-1645), Human Rhinovirus 14 (HRV14) (ATCC, Manassas, VA, Cat #VR-284), and Human Rhinovirus 16 (HRV16) (ATCC, Manassas, VA, Cat #BR-283) was obtained through ATCC. Viral infection was monitored by determining viability of H1-HeLa cells as described below.
as §1, with “Test molecules” for “Compounds”
(§3) The test compounds were spotted to 384-well assay plates (Greiner, Monroe, NC, Cat #781091) at 200 nL per well using an Echo acoustic dispenser (Labcyte, Sunnyvale, CA). H1-HeLa cells were harvested and suspended in DMEM (supplemented with 2% FBS and 1× Penicillin-Streptomycin-L-Glutamine) and seeded to the pre-spotted assay plates at 5,000 cells per well in 30 μL. HRV1B, HRV14, and HRV16 was diluted in DMEM (supplemented with 2% FBS and 1× Penicillin-Streptomycin-L-Glutamine) at 97.1 million Infectious Units (IU) per mL, 151 million IU per mL and 221 million IU per mL respectively. 10 μL of virus per well was added to the assay plates containing cells and compounds, for an MOI of 0.5, 1.0, and 0.25 respectively. The assay plates were incubated for 4 days at 37° C. and 5% CO2. At the end of incubation, Celltiter-Glo (Promega, Madison, WI, Cat #G7573) was prepared. The assay plates and Celltiter-Glo reagent were equilibrated to room temperature for at least 15 minutes. 40 μL per well of Celltiter-Glo reagent was added and the plates were incubated at room temperature for 15 minutes before reading the luminescence signal on an EnVision multimode plate reader (Perkin Elmer, Waltham, MA). Rupintrivir was used as positive control and DMSO was used as negative control. Values were normalized to the positive and negative controls (as 0% and 100% replication, respectively) and data was fitted using non-linear regression analysis by Gilead's dose response tool. The EC50 value for each compound was defined as the concentration reducing viral replication by 50%.

[5] = RSV HEP2-CC50-384-V2 (per Ex. V); settings: human
[6] = test system: Human Rhinovirus 14 (HRV14) in H1-HeLa cells; assay: H1-HeLa HRV-CTG EC50, HRV14 (Example Z); settings: Rhinovirus B, HRV14, 96 h, MOI 1.0, 4 days, Celltiter-Glo, read-out: HRV14 HELA EC50 (nM) (per Ex. Z)
Source text: as §2
as §1, with “Test molecules” for “Compounds”
as §3

[7] = test system: Respiratory syncytial virus recombinant with luciferase (RSV-Luc5) in HEp-2 cells; assay: HEp-2 RSV-Luc5 384-well assay (EC50 RSVFLUC Hep2-384 v2, Example V); settings: human respiratory syncytial virus, HEp-2, 72 h, read-out: RSV Hep-2 FLuc EC50 (v2) (nM) (per Ex. V)
Source text: HEp-2 cell line was purchased from ATCC (Manassas, VA Cat #CCL-23) and maintained in Dulbecco's […] (DMEM) (Corning, New York, NY, Cat #15-018CM) supplemented with 10% fetal bovine serum (FBS) (Hyclone, Logan, UT, Cat #SH30071-03) and 1× Penicillin-Streptonycin-L-Glutamine (Corning, New York, NY, Cat #30-009-CI). Cells were passaged 2 times per week to maintain sub-confluent densities and were used for experiments at passage 5-20. Respiratory syncytial virus recombinant with luciferase (RSV-Luc5) (≥1×107 TCID50/ml) was purchased from Microbiologics (Saint Cloud, MN). Viral replication was determined in HEp-2 cells in the following manner.
as §1
The test compounds were spotted to 384-well assay plates (Greiner, Monroe, NC, Cat #781091) at 200 nL per well. HEp-2 cells were harvested and suspended in DMEM (supplemented with 10% FBS and 1× Penicillin-Streptomycin-L-Glutamine) and seeded to the pre-spotted assay plates at 4,000 cells per well in 30 μL. RSV-Luc5 viruses were diluted in DMEM (supplemented with 10% FBS and 1× Penicillin-Streptomycin-L-Glucamine) at 200,000 Infectious Units (IU) per mL and 10 μL per well was added to the assay plates containing cells and compounds, for an MOI=0.5. The assay plates were incubated for 3 days at 37° C. and 5% CO2. At the end of incubation, One-Glo reagent (Promega, Madison, WI, Cat #E6120) was prepared. The assay plates and One-Glo reagent were equilibrated to room temperature for at least 15 minutes. 40 μL per well of One-Glo reagent was added and the plates were incubated at room temp for 15 minutes before reading the luminescence signal on an EnVision multimode plate reader (Perkin Elmer, Waltham, MA). Remdesivir was used as positive control and DMSO was used as negative control. Values were normalized to the positive and negative controls (as 0% and 100% replication, respectively) and data was fitted using non-linear regression analysis by Gilead's dose response tool. The EC50 value for each compound was then determined as the concentration reducing the viral replication by 50%.

[8] = test system: Human Rhinovirus 16 (HRV16) in H1-HeLa cells; assay: H1-HeLa HRV-CTG EC50, HRV16 (Example Z); settings: Rhinovirus A, HRV16, 96 h, MOI 0.25, 4 days, Celltiter-Glo, read-out: HRV 16 HELA EC50 (nM) (per Ex. Z)
Source text: as §2
as §1, with “Test molecules” for “Compounds”
as §3

[9] = in vitro; settings: human
Description: (§4) Huh7 hepatoblastoma cells were seeded onto 96-well plates and incubated at 37° C. with 5% CO2 overnight. The plates were seeded at a cell concentration that will yield >70% confluent monolayers in each well after overnight incubation. Eight 3-fold serial dilutions of compounds were diluted in test media (MEM supplemented with 2% FBS and 50 μg/mL gentamicin). The highest test compound concentration was 50 μg/mL. 100 μL of each concentration was added to 5 test wells on the 96-well plate. Of these 5 test wells, 3 wells of each dilution were infected with dengue virus type 2, diluted in test media (approximately 2000 CCID50 per well for an MOI of 0.07). Test medium (100 μL) with no virus was added to 2 wells to represent the uninfected cytotoxicity controls. Six additional infected wells received 100 μL media alone as untreated virus controls. Further, 100 μL of media alone was added to 6 uninfected wells to serve as uninfected, untreated controls. Cultures were incubated at 37° C.+5% CO2 until >80% CPE is observed. After cytopathic effect (CPE) is observed microscopically, 0.011% neutral red dye was added for approximately 2 hours. The neutral red dye was removed and wells were rinsed once with PBS to remove residual, unincorporated dye. A 50:50 Sorensen citrate buffer/ethanol solution was added and incubated at room temperature for >30 minutes with agitation, followed by measurement of neutral red dye using a spectrophotometer at 540 nm. The resulting optical density measurement was converted to percent signal of the infected, untreated cell control normalizing to virus controls. EC50 and CC50 values were determined by linear regression analysis.

[10] = test system: dengue virus type 2 in Huh7 hepatoblastoma cells; assay: Dengue Virus-2 Huh-7 EC50 (Example W); settings: MOI of 0.07, CPE, neutral red dye, read-out: Dengue Virus-2 Huh-7 EC50 (nM) (per Ex. W)
Description: as §4

Compound | CC50 at 3 days [1] | EC50 [2] | EC50 [3] | EC50 [4] | CC50 at 3 days [5] | EC50 [6] | EC50 [7] | EC50 [8] | CC50 [9] | EC50 [10]
CCCCCCCCCCCCCCCCCCC[C@@H](COP(=O)(O)OC[C@@]1(C#N)O[C@@H](c2ccc3c(N)ncnn23)[C@H](O)[C@@H]1O)OCc1cc(F)cc(C#N)c1 [Compound 31, ((2R,3S,4R)-5-(4-aminopyrrolo[2,1-f][1,2,4]triazin-7-yl)-2-cyano-3,4-dihydroxytetrahydrofuran-2-yl)methyl ((S)-2-((3-cyano-5-fluorobenzyl)oxy)henicosyl) hydrogen phosphate] | 1900 nM | 229 nM | 134 nM | – | – | – | – | – | – | –
CCCCCCCCCCCCCCCOC[C@H](COP(=O)(O)OC[C@@]1(C#N)O[C@@H](c2ccc3c(N)ncnn23)[C@H](O)[C@@H]1O)OCc1cc(F)cc(C#N)c1 [Compound 99, ((2R,3S,4R,5S)-5-(4-aminopyrrolo[2,1-f][1,2,4]triazin-7-yl)-2-cyano-3,4-dihydroxytetrahydrofuran-2-yl)methyl ((R)-2-((3-cyano-5-fluorobenzyl)oxy)-3-(pentadecyloxy)propyl) hydrogen phosphate] | 1140 nM | – | 47 nM | 19 nM | 42300 nM | 37 nM | 166 nM | 33 nM | – | –
CCCCCCCCCCCCCCOC[C@H](COP(=O)(O)OC[C@@]1(C#N)O[C@@H](c2ccc3c(N)ncnn23)[C@H](O)[C@@H]1O)Oc1ccc(C#N)cn1 [Compound 71] | – | 199 nM | – | – | > 50000 nM | – | 2580 nM | – | > 50000 nM | 33000 nM
